Among the data in ChEMBL document CHEMBL2429864, “Synthesis and antimicrobial evaluation of 1,3,4-oxadiazole-based chalcone derivatives” (2013) are MIC values, retold here.

The term MIC denotes the lowest concentration that inhibits growth of the organism. Higher therefore signals a need for much substance.

Values after ≈ are worked out from the molar mass of the structure shown.

Holding throughout (type): functional
One assay deals with Enterococcus faecalis. As to the kind of experiment: Antibacterial activity against Enterococcus faecalis ATCC 29212 by micro dilution/broth titre method.
Another assay has as its system Escherichia coli. As to the kind of experiment: Antibacterial activity against Escherichia coli ATCC 25922 by micro dilution/broth titre method.
In a further assay the test system is Staphylococcus aureus. As to the kind of experiment: Antibacterial activity against Staphylococcus aureus ATCC 25923 by micro dilution/broth titre method.
The subject of a further assay is Pseudomonas aeruginosa. Nature of the assay: Antibacterial activity against Pseudomonas aeruginosa ATCC 27853 by micro dilution/broth titre method.
Another assay relates to Candida albicans. As to the kind of experiment: Antifungal activity against Candida albicans ATCC 10231.
The next assay has as its system Aspergillus niger. As to the kind of experiment: Antifungal activity against Aspergillus niger ATCC 1015.

Turning to `O=C(O)c1cn(C2CC2)c2cc(N3CCNCC3)c(F)cc2c1=O` [CIPROFLOXACIN], the MIC came out at 125 µg/mL (≈ 377 µM) with Enterococcus faecalis, 125 µg/mL (≈ 377 µM) in the assay with Escherichia coli, 62.5 µg/mL (≈ 189 µM) against Staphylococcus aureus and 125 µg/mL (≈ 377 µM) against Pseudomonas aeruginosa.

Take `O=C(CSc1nnc(-c2cccc([N+](=O)[O-])c2)o1)Nc1ccc(C(=O)/C=C\c2ccc(O)cc2)cc1`: the MIC is 62.5 µg/mL (≈ 124 µM) with Candida albicans; 62.5 µg/mL (≈ 124 µM) with Aspergillus niger; 125 µg/mL (≈ 249 µM) against Enterococcus faecalis; 31.2 µg/mL (≈ 62.2 µM) in the assay with Escherichia coli; 125 µg/mL (≈ 249 µM) against Staphylococcus aureus; 31.2 µg/mL (≈ 62.2 µM) in the assay with Pseudomonas aeruginosa.

As for `O=C(CSc1nnc(-c2cccc([N+](=O)[O-])c2)o1)Nc1ccc(C(=O)/C=C\c2ccc([N+](=O)[O-])cc2)cc1`, the MIC against Candida albicans stood at 250 µg/mL (≈ 470 µM); in the assay with Aspergillus niger, 250 µg/mL (≈ 470 µM); against Enterococcus faecalis it was 62.5 µg/mL (≈ 118 µM); in the assay on Escherichia coli it was 31.2 µg/mL (≈ 58.8 µM); in the assay with Staphylococcus aureus it was 62.5 µg/mL (≈ 118 µM); against Pseudomonas aeruginosa it was 62.5 µg/mL (≈ 118 µM).

In the case of `COc1cc(/C=C\C(=O)c2ccc(NC(=O)CSc3nnc(-c4cccc([N+](=O)[O-])c4)o3)cc2)cc(OC)c1OC`, the MIC was 250 µg/mL (≈ 434 µM) in the assay with Candida albicans; 125 µg/mL (≈ 217 µM) with Aspergillus niger; 62.5 µg/mL (≈ 108 µM) with Enterococcus faecalis; 62.5 µg/mL (≈ 108 µM) in the assay with Escherichia coli; 62.5 µg/mL (≈ 108 µM) in the assay with Staphylococcus aureus; 62.5 µg/mL (≈ 108 µM) in the assay with Pseudomonas aeruginosa.

As to `COc1cc(/C=C\C(=O)c2ccc(NC(=O)CSc3nnc(-c4cccc([N+](=O)[O-])c4)o3)cc2)ccc1O`, the MIC against Candida albicans was 250 µg/mL (≈ 469 µM); in the assay with Aspergillus niger, 250 µg/mL (≈ 469 µM); in the assay with Enterococcus faecalis, 62.5 µg/mL (≈ 117 µM); in the assay with Escherichia coli, 31.2 µg/mL (≈ 58.7 µM); in the assay on Staphylococcus aureus it was 62.5 µg/mL (≈ 117 µM); in the assay on Pseudomonas aeruginosa, 62.5 µg/mL (≈ 117 µM).

On to `COc1ccc(/C=C\C(=O)c2ccc(NC(=O)CSc3nnc(-c4cccc([N+](=O)[O-])c4)o3)cc2)cc1OC`, for which the MIC with Candida albicans is 500 µg/mL (≈ 915 µM); against Aspergillus niger it was 500 µg/mL (≈ 915 µM); against Enterococcus faecalis, 31.2 µg/mL (≈ 57.2 µM); in the assay on Escherichia coli, 62.5 µg/mL (≈ 114 µM); against Staphylococcus aureus, 62.5 µg/mL (≈ 114 µM); in the assay on Pseudomonas aeruginosa it was 62.5 µg/mL (≈ 114 µM).

As to `COc1ccc(OC)c(/C=C\C(=O)c2ccc(NC(=O)CSc3nnc(-c4cccc([N+](=O)[O-])c4)o3)cc2)c1`, the MIC with Candida albicans stood at 125 µg/mL (≈ 229 µM); in the assay on Aspergillus niger it was 125 µg/mL (≈ 229 µM); against Enterococcus faecalis, 125 µg/mL (≈ 229 µM); against Escherichia coli, 62.5 µg/mL (≈ 114 µM); in the assay on Staphylococcus aureus, 62.5 µg/mL (≈ 114 µM); against Pseudomonas aeruginosa, 62.5 µg/mL (≈ 114 µM).

On to `O=C(CSc1nnc(-c2cccc([N+](=O)[O-])c2)o1)Nc1ccc(C(=O)/C=C\c2ccccc2)cc1`, for which the MIC came to 250 µg/mL (≈ 514 µM) in the assay with Candida albicans; 125 µg/mL (≈ 257 µM) in the assay with Aspergillus niger; 31.2 µg/mL (≈ 64.2 µM) in the assay with Enterococcus faecalis; 31.2 µg/mL (≈ 64.2 µM) in the assay on Escherichia coli; 31.2 µg/mL (≈ 64.2 µM) in the assay on Staphylococcus aureus; 62.5 µg/mL (≈ 128 µM) with Pseudomonas aeruginosa.

Regarding `O=C(CSc1nnc(-c2cccc([N+](=O)[O-])c2)o1)Nc1ccc(C(=O)/C=C\c2c(O)ccc3ccccc23)cc1`, the MIC against Candida albicans, in the assay on Aspergillus niger, in the assay on Enterococcus faecalis, against Escherichia coli, in the assay on Staphylococcus aureus and against Pseudomonas aeruginosa was 62.5 µg/mL (≈ 113 µM) each time.

On to `OC(Cn1cncn1)(Cn1cncn1)c1ccc(F)cc1F` [FLUCONAZOLE], for which the MIC amounted to 125 µg/mL (≈ 408 µM) against Candida albicans and 62.5 µg/mL (≈ 204 µM) in the assay with Aspergillus niger.

Regarding `O=C(CSc1nnc(-c2cccc([N+](=O)[O-])c2)o1)Nc1ccc(C(=O)/C=C\c2ccccc2[N+](=O)[O-])cc1`, the MIC came out at 250 µg/mL (≈ 470 µM) against Candida albicans; 250 µg/mL (≈ 470 µM) in the assay on Aspergillus niger; 125 µg/mL (≈ 235 µM) with Enterococcus faecalis; 62.5 µg/mL (≈ 118 µM) against Escherichia coli; 125 µg/mL (≈ 235 µM) against Staphylococcus aureus; 62.5 µg/mL (≈ 118 µM) in the assay on Pseudomonas aeruginosa.

With `O=C(CSc1nnc(-c2cccc([N+](=O)[O-])c2)o1)Nc1ccc(C(=O)/C=C\c2ccc(Cl)cc2)cc1`, the MIC was 62.5 µg/mL (≈ 120 µM) with Candida albicans; 62.5 µg/mL (≈ 120 µM) with Aspergillus niger; 62.5 µg/mL (≈ 120 µM) against Enterococcus faecalis; 62.5 µg/mL (≈ 120 µM) with Escherichia coli; 62.5 µg/mL (≈ 120 µM) in the assay with Staphylococcus aureus; 31.2 µg/mL (≈ 60 µM) in the assay with Pseudomonas aeruginosa.

Take `COc1ccc(/C=C\C(=O)c2ccc(NC(=O)CSc3nnc(-c4cccc([N+](=O)[O-])c4)o3)cc2)cc1`: the MIC in the assay with Candida albicans was 125 µg/mL (≈ 242 µM); in the assay on Aspergillus niger, 125 µg/mL (≈ 242 µM); against Enterococcus faecalis it was 125 µg/mL (≈ 242 µM); against Escherichia coli it was 62.5 µg/mL (≈ 121 µM); with Staphylococcus aureus it was 62.5 µg/mL (≈ 121 µM); against Pseudomonas aeruginosa, 62.5 µg/mL (≈ 121 µM).

As for `CN(C)c1ccc(/C=C\C(=O)c2ccc(NC(=O)CSc3nnc(-c4cccc([N+](=O)[O-])c4)o3)cc2)cc1`, the MIC with Candida albicans worked out at 62.5 µg/mL (≈ 118 µM); with Aspergillus niger, 125 µg/mL (≈ 236 µM); against Enterococcus faecalis it was 125 µg/mL (≈ 236 µM); with Escherichia coli, 31.2 µg/mL (≈ 59 µM); in the assay with Staphylococcus aureus, 31.2 µg/mL (≈ 59 µM); in the assay with Pseudomonas aeruginosa it was 62.5 µg/mL (≈ 118 µM).

In the case of `O=C(CSc1nnc(-c2cccc([N+](=O)[O-])c2)o1)Nc1ccc(C(=O)/C=C\c2ccc(Br)cc2)cc1`, the MIC against Candida albicans was found to be 250 µg/mL (≈ 442 µM); against Aspergillus niger, 250 µg/mL (≈ 442 µM); against Enterococcus faecalis, 62.5 µg/mL (≈ 111 µM); in the assay with Escherichia coli it was 62.5 µg/mL (≈ 111 µM); against Staphylococcus aureus, 62.5 µg/mL (≈ 111 µM); against Pseudomonas aeruginosa, 62.5 µg/mL (≈ 111 µM).

Turning to `O=C(CSc1nnc(-c2cccc([N+](=O)[O-])c2)o1)Nc1ccc(C(=O)/C=C\c2ccccc2O)cc1`, the MIC against Candida albicans stood at 125 µg/mL (≈ 249 µM); with Aspergillus niger, 125 µg/mL (≈ 249 µM); with Enterococcus faecalis, 125 µg/mL (≈ 249 µM); against Escherichia coli, 62.5 µg/mL (≈ 124 µM); with Staphylococcus aureus, 62.5 µg/mL (≈ 124 µM); with Pseudomonas aeruginosa, 62.5 µg/mL (≈ 124 µM).
